The record followed here is ChEMBL document CHEMBL1134659, “Amino acid/spermine conjugates: polyamine amides as potent spermidine uptake inhibitors” (J Med Chem, 2001).

pEC50, pKi: −log10 of the molar value.

Assay type in all cases: functional, cell-based
The test system of experiment [1] is MDA-MB-231. The experiment in a line: In vitro inhibition of [3H]spermidine uptake in MDA-MB-231 (Human breast cancer) cells.
Experiment [2] deals with MDA-MB-231. The experiment in a line: In vitro inhibition of MDA-MB-231 (Human breast caner) cell growth.
Experiment [3] relates to MDA-MB-231. Briefly: Inhibition of [3H]spermidine transport into MDA-MB-231 (human breast cancer) cells.

Take `CC(C)C[C@H](N)C(=O)NCCCNCCCCNCCCN`: the pKi in the experiment on MDA-MB-231 [1] was 7.34. This compound also had a negative-log EC50 (pEC50) in the experiment on MDA-MB-231 [2] of under 3.52.
Consider `CCCCCC(=O)NCCCNCCCCNCCCN`, for which the negative logarithm of the Ki (pKi) in the experiment on MDA-MB-231 [3] is 6.55.
In the experiment on MDA-MB-231 [3], `NCCCNCCCCNCCCNC(=O)Cc1cccc2ccccc12` had a pKi of 6.75. This pKi is 0.20 log units higher than that of the compound before.
The compound `NCCCNCCCCNCCCNC(=O)[C@@H]1CCCN1` gave a negative-log Ki (pKi) in the experiment on MDA-MB-231 [1] of 7.42. Moreover, the pEC50 in the experiment on MDA-MB-231 [2] was 4.03.
The corresponding values for `CC(C)[C@H](N)C(=O)NCCCNCCCCNCCCN` are 7.08 and 4.80.
For the compound `N=C(N)NCCCCCCC(=O)NC(O)C(=O)NCCCCNCCCN` (stereo not drawn), the pKi in the experiment on MDA-MB-231 [3] is 7.09.
`NCCCNCCCCNCCCNC(=O)[C@@H](N)Cc1c[nH]c2ccccc12`: the pKi in the experiment with MDA-MB-231 [1] is 6.92. In the experiment with MDA-MB-231 [2], this compound gave a negative-log EC50 (pEC50) of 4.82.
As for `NCCCNCCCCNCCCNC(=O)[C@@H](N)CC1CCCCC1`, in the experiment with MDA-MB-231 [1], the pKi is 6.71. The compound further gave a negative logarithm of the EC50 (pEC50) in the experiment on MDA-MB-231 [2] of 5.10.
The corresponding values for `CC(C)(C)[C@H](N)C(=O)NCCCNCCCCNCCCN` are 6.90 and 4.96.
In the experiment on MDA-MB-231 [1], `NCCCNCCCCNCCCNC(=O)[C@@H](N)Cc1ccccc1` gave a pKi of 6.35. The compound further had a pEC50 in the experiment with MDA-MB-231 [2] of under 4.00.
With `CSCC[C@H](N)C(=O)NCCCNCCCCNCCCN`, the negative-log Ki (pKi) in the experiment with MDA-MB-231 [1] is 7.19. For the same compound, the pEC50 in the experiment on MDA-MB-231 [2] is under 3.52.
`C[C@H](N)C(=O)NCCCNCCCCNCCCN` gave a pKi in the experiment on MDA-MB-231 [1] of 6.84. This compound also had a negative-log EC50 (pEC50) in the experiment on MDA-MB-231 [2] of under 3.52.
The corresponding values for `CC(C)(N)C(=O)NCCCNCCCCNCCCN` are 6.72 and 5.10.
Take `NCCCNCCCCNCCCNC(=O)CN`: the pKi in the experiment with MDA-MB-231 [1] was 7.06. This compound also gave a pEC50 in the experiment on MDA-MB-231 [2] of under 4.00.
Regarding `NCCCNCCCCNCCCNC(=O)C12CC3CC(CC(C3)C1)C2`, in the experiment with MDA-MB-231 [3], the negative logarithm of the Ki (pKi) was 6.17.
With `NCCCNCCCCNCCCNC(=O)[C@@H](N)CO`, the negative-log Ki (pKi) in the experiment with MDA-MB-231 [1] is 7.26. Also, the negative logarithm of the EC50 (pEC50) in the experiment with MDA-MB-231 [2] was 4.59.
Regarding `NCCCNCCCCNCCCNC(=O)CCN`, the negative logarithm of the Ki (pKi) with MDA-MB-231 [1] was 7.19. In addition, in the experiment with MDA-MB-231 [2], the pEC50 was under 3.52.
For the compound `NCCCCNCCCN` [SPERMIDINE], the pKi with MDA-MB-231 [3] was 6.95.
For the compound `C[C@H](O)[C@H](N)C(=O)NCCCNCCCCNCCCN`, in the experiment with MDA-MB-231 [1], the negative-log Ki (pKi) was 6.67. In the experiment with MDA-MB-231 [2], this compound gave a pEC50 of 5.22.
The corresponding values for `NCCCNCCCCNCCCNC(=O)[C@@H](N)CCC(N)=O` are 6.75 and under 3.52.
`CC(=O)NCCCNCCCNCCCN` had a negative logarithm of the Ki (pKi) with MDA-MB-231 [3] of under 6.00.
Consider `NCCCNCCCCNCCC(=O)NCCCCCNC(=O)[C@H](CC(N)=O)NC(=O)Cc1ccc(O)cc1O` [JORO SPIDER TOXIN 3], for which, in the experiment with MDA-MB-231 [3], the pKi was 6.72.
Still for that read-out and setting: next, `NCCCNCCCCNCCCNC(=O)CC12CC3CC(CC(C3)C1)C2`: 6.59.
As for `CCC(C)[C@H](N)C(=O)NCCCNCCCCNCCCN` (stereo partly drawn), the pKi in the experiment on MDA-MB-231 [1] is 6.82. In the experiment with MDA-MB-231 [2], this compound had a pEC50 of 5.05.
The corresponding values for `NCCCNCCCCNCCCNC(=O)[C@@H](N)CC(N)=O` are 7.02 and 4.01.
The corresponding values for `CC(C)[C@@H](N)C(=O)NCCCNCCCCNCCCN` are 7.24 and 5.05.
`CC(C)(C)OC(=O)NCCCNCCCCNCCCN` showed a negative logarithm of the Ki (pKi) with MDA-MB-231 [3] of 7.07.
Turning to `NCCCNCCCCNCCCNC(=O)[C@@H](N)CCCN`, the pKi with MDA-MB-231 [1] was 7.33. The negative logarithm of the EC50 (pEC50) in the experiment on MDA-MB-231 [2] is 5.52.
The corresponding values for `NCCCNCCCCNCCCNC(=O)[C@H](N)Cc1c[nH]c2ccccc12` are 7.20 and 3.69.
For `NCCCNCCCCNCCCNC(=O)[C@@H](N)Cc1ccc(O)cc1`, the pKi in the experiment on MDA-MB-231 [1] was 6.94. In addition, the negative logarithm of the EC50 (pEC50) in the experiment on MDA-MB-231 [2] was 4.02.
As to `NCCCCN` [PUTRESCINE], the pKi with MDA-MB-231 [3] was 5.89.
For `NCCCNCCCCNCCCN` [SPERMINE], the negative logarithm of the Ki (pKi) in the experiment on MDA-MB-231 [3] is 6.55. Against the preceding compound, the pKi is 0.66 log units higher.

As a reminder, the pKi is the Ki on a negative log10 scale, so that one unit is a factor of ten. The low end stands for a high Ki, the high end for a low Ki. A word on the pEC50: it is the negative decadic logarithm of the EC50, by convention in mol/L. Low readings indicate a high EC50, high ones a low EC50.
